We go through 19 molecules from the NIST ThermoML archive (doi:10.1021/je060025z).

± gives the expanded uncertainty stated by the source.

The conditions of data set [1]: 101.33 kPa, Liquid, Vibrating tube method.
Data set [2] can be described thus: refractive index (Na D-line) (dimensionless). As to conditions: 101.33 kPa, Liquid, Standard Abbe refractometry.

Regarding `CC(=O)C(C)C` [3-methyl-2-butanone], in data set [1] (293.15 K), the mass density – broadly, the mass of a sample divided by its volume – is 804.8 ± 2.1 kg/m3. Moreover, the refractive index (as a rule, a measure of how strongly the sample bends light) in data set [2] (293.15 K) is 1.3884 ± 0.0011.

Regarding `CCCC(=O)CCC` [4-heptanone], the mass density in data set [1] (293.15 K) is on record as 817.6 ± 2.2 kg/m3. The refractive index in data set [2] (293.15 K) is given as 1.4068 ± 0.0011.

For the molecule `CCCCOC(=O)c1ccccc1C(=O)OCCCC` [dibutyl phthalate], the mass density in data set [1] (293.15 K) is 1047.1 ± 2.8 kg/m3. Besides, the refractive index in data set [2] (293.15 K) is reported as 1.4909 ± 0.0011.

In the case of `CCCCCCCCCCO` [decan-1-ol], the mass density in data set [1] (293.15 K) was 829.6 ± 2.2 kg/m3. The refractive index in data set [2] (293.15 K) is given as 1.4374 ± 0.0011.

Regarding `CC(C)CCO` [3-methylbutan-1-ol], the mass density in data set [1] (293.15 K) stood at 808.4 ± 2.1 kg/m3. In data set [2] (293.15 K), the refractive index was found to be 1.4075 ± 0.0011.

As for `CCCCCCCCN(CCCCCCCC)CCCCCCCC` [trioctylamine], the mass density in data set [1] (293.15 K) is listed as 810.7 ± 2.2 kg/m3. For the same molecule, the refractive index in data set [2] (292.15 K) stood at 1.4505 ± 0.0011.

Consider `CCCCCC` [hexane], for which the mass density in data set [1] (298.15 K) is given as 660.4 ± 1.8 kg/m3. In data set [2] (298.15 K), the refractive index came out at 1.3729 ± 0.0011.

Turning to `CCOC(C)=O` [ethyl acetate], in data set [1] (293.15 K), the mass density is recorded as 900.1 ± 2.4 kg/m3. Moreover, in data set [2] (293.15 K), the refractive index worked out at 1.372 ± 0.0011.

Consider `CCCCCCCC/C=C\CCCCCCCCO` [(Z)-9-octadecen-1-ol], for which the mass density in data set [1] (293.15 K) came out at 849 ± 2.3 kg/m3. The refractive index in data set [2] (293.15 K) came to 1.4601 ± 0.0011.

With `CCCCCCCCCO` [nonan-1-ol], the mass density in data set [1] (293.15 K) is 828.5 ± 2.2 kg/m3. For the same molecule, the refractive index in data set [2] (293.15 K) was determined as 1.4327 ± 0.0011.

For `COC(C)(C)C` [2-methoxy-2-methylpropane], the mass density in data set [1] (298.15 K) is reported as 734.7 ± 2 kg/m3. Further, in data set [2] (298.15 K), the refractive index was found to be 1.3664 ± 0.0011.

Take `CCCC(=O)O` [butanoic acid]: the mass density in data set [1] (298.15 K) is listed as 952.3 ± 2.5 kg/m3. The refractive index in data set [2] (293.15 K) stood at 1.3982 ± 0.0011.

In the case of `CCC(C)=O` [butanone], the mass density in data set [1] (298.15 K) is 798.2 ± 2.1 kg/m3. Further, in data set [2] (293.15 K), the refractive index is reported as 1.3793 ± 0.0011.

Turning to `CCCCCCCCCCCCO` [dodecan-1-ol], the mass density in data set [1] (297.15 K) was 831.1 ± 2.2 kg/m3.

With `COC(=O)c1ccccc1C(=O)OC` [dimethyl 1,2-benzenedicarboxylate], the mass density in data set [1] (293.15 K) is 1190.4 ± 3.2 kg/m3. For the same molecule, the refractive index in data set [2] (293.15 K) came out at 1.5135 ± 0.0011.

As for `CC(=O)CC(C)C` [4-methylpentan-2-one], the mass density in data set [1] (298.15 K) was 796.1 ± 2.1 kg/m3. In addition, in data set [2] (293.15 K), the refractive index worked out at 1.3958 ± 0.0011.

Consider `O` [water], for which the mass density in data set [1] (293.15 K) came out at 999.9 ± 2.7 kg/m3. Also, the refractive index in data set [2] (293.15 K) amounted to 1.3324 ± 0.0011.

Take `CC(=O)OC1CCCCC1` [cyclohexyl ethanoate]: the mass density in data set [1] (293.15 K) is 968.4 ± 2.6 kg/m3. In addition, in data set [2] (293.15 K), the refractive index came to 1.4421 ± 0.0011.

Regarding `Cc1ccccc1` [toluene], in data set [1] (293.15 K), the mass density is recorded as 866.7 ± 2.3 kg/m3. For the same molecule, the refractive index in data set [2] (293.15 K) is 1.496 ± 0.0011.
